Entries after “also recorded” stand apart in the source; their conditions may differ. Read-outs that look alike come from different tables or passages of the source.
Columns and labels:
[1] = tested on: parental INS-1E cells; test: Glucose-stimulated insulin secretion (GSIS) in parental INS-1E cells; type: cell-based; settings: Rattus norvegicus, 1.5 h, read-out: IC50, inhibition of GSIS
[2] = target: T1, endogenous α2A-adrenergic receptors in INS-1E cells (Rattus norvegicus, UniProt P22909); test: [3H]RX821002 radioligand binding, INS-1E cell membranes; settings: for Bmax, saturation binding / Kd: parental INS-1E cell membranes; for Kd: read-out: KD, saturation binding
T1 construct: adherent INS-1E cells expressing the endogenous α2A-adrenergic receptors; endogenous in cells; host or cells: INS-1E (rat insulinoma) cell membranes
T1 sequence (P22909 1-465): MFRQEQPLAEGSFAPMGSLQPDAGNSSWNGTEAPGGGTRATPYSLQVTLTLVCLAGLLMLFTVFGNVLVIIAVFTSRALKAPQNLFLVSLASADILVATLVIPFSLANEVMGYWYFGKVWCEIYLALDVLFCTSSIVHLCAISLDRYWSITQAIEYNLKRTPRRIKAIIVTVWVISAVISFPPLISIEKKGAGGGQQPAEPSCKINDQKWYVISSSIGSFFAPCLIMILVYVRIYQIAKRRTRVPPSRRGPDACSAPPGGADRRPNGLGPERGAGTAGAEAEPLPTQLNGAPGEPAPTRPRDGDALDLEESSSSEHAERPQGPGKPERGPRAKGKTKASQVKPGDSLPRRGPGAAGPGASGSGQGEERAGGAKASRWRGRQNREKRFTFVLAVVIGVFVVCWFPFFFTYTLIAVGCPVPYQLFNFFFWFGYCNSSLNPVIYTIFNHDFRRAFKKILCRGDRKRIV
Method: (§1) Radioligand binding and competition assays were conducted as previously described. Briefly, adherent INS-1E cells expressing the endogenous α2A-adrenergic receptors or transfected HEK-293 cells overexpressing human α2A-adrenergic receptor were dissociated from plates, and intact cells collected by centrifugation (600–900 g, 5–10 min, 4 °C). Cells were resuspended and lysed using 5 mM Tris-HCl and 5 mM MgCl2 (pH 7.4, 4 °C). Cell lysates were pelleted by centrifugation at 30,000 × g for 30 min and resuspended in Earle’s Balanced Salt Solution with Ca^2+ (pH 7.4). For saturation binding assays, cell lysates (100 µL, 2–5 μg of protein for HEK-293 cells and 10–20 μg of protein for INS-1E cells, quantified by the Bradford Assay) were incubated with the indicated concentrations of [^3H]RX821002 (90 min, room temperature). […] The bound ligand was separated from free ligand by filtration through a Perkin Elmer Unifilter-96 GF/C 96-well microplate using the Perkin Elmer Unifilter-96 Harvester (Perkin Elmer, Waltham, MA), followed by three washes with ice-cold assay buffer. After drying, a liquid scintillation cocktail (MicroScint PS; Perkin Elmer) was added to each well, and plates were sealed and analyzed on a Topcount NXT liquid scintillation counter (Perkin Elmer). Ki values were calculated from observed IC50 values using the Cheng–Prusoff equation[47].

[3] = tested on: glucose-stimulated insulin secretion (GSIS) from β-cells in mouse islets; test: Islet secretion assay: insulin secretion from mouse islets; type: cell-based
Method: (§2) Islets were freshly isolated via collagenase digestion of pancreata as described previously. Human pancreatic islets were isolated via collagenase digestion and purified from four non-diabetic human donors (Supplementary Table S1) as described previously. Following isolation and purification, human or mouse islets were plated at a density of 15 islets per well into 24-well tissue culture-treated plates. […] The islets were used immediately after overnight recovery for hormone secretion assays.
(§3) Measurements of hormone secretion were performed using static incubation of pancreatic islets. […] Islets were then transferred to a 24-well plate containing KRB buffer also supplemented with 25 mM glucose. Drug treatments were added in KRB (25 mM glucose) (1 hr, 37 °C, 5% CO2). After treatment, KRB was supplemented with a protease inhibitor cocktail (1 tablet/10 mL KRB; Roche Diagnostics, Mannheim, Germany) to prevent glucagon degradation. Supernatants were collected and placed on ice to further prevent glucagon degradation and precipitation. Undiluted supernatants and 1:2 dilutions were used for the glucagon detection assay, while 1:10 dilutions were used for insulin measurement; all dilutions were in KRB.

[4] = target: α2A-adrenergic receptor (Rattus norvegicus, UniProt P22909); test: NanoBRET Gαi1 recruitment to α2A-adrenergic receptor; type: cell-based
α2A-adrenergic receptor, sequence (P63096 2-354 partner limits assumed, one chain of several): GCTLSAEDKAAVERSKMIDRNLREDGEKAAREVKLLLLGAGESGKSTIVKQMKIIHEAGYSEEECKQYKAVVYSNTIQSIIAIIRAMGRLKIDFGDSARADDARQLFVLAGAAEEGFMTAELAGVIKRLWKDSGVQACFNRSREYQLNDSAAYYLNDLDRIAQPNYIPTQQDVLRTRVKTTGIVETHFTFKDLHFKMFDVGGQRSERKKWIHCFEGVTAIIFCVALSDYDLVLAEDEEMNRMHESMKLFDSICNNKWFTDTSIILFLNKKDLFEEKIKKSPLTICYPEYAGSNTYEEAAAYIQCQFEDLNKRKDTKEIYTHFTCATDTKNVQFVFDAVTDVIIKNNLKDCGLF
Text: For nanoBRET experiments, we used receptor constructs consisting of either human D2R (DRD2) and rat α2A-adrenergic receptor (Adra2a) cDNAs fused to HaloTag at the C-terminus (α2A-AR-HaloTag and D2R-HaloTag). Both receptors were also tagged at the N terminus with an IL6 signal sequence followed by a HiBiT tag. […] All constructs were cloned into a pcDNA3.1(+) vector backbone (ThermoFisher Scientific) and confirmed by sequencing analysis.
For NanoLuc-only controls, empty pcDNA3.1(+) vector was used to maintain a constant amount of total transfected DNA.
Cells were harvested, washed, and resuspended in fresh medium 24 h post-transfection. Approximately 5 × 10^4 cells/well were distributed in pre-coated 96-well plates and allowed to adhere overnight (37 °C, 5% CO2). […] Following labeling, cells were washed once with HBSS, and 5 μM furimazine (substrate for NanoLuc) was added to every well. Drugs were then added to the samples and incubated for […]. Plates were read 5 min following drug addition using a PheraStar FSX equipped with a nanoBRET-compatible optic module (LUM 610 450) (BMG Labtech). […] EC50 values were calculated via a non-linear regression analysis via GraphPad software.

[5] = tested on: α-cell glucagon secretion from mouse islets; test: Islet secretion assay: glucagon secretion from mouse islets; type: cell-based; settings: for EC50: read-out: EC50, increase in secreted glucagon
Method: as §2, with “For mouse pancreatic islet preparations, islets were obtained from 8 to 10-week-old wild-type BALB/c mice. Islets” for “Islets”
(§4) Measurements of hormone secretion were performed using static incubation of pancreatic islets. […] The increased glucose (25 mM) was used to inhibit α-cell glucagon secretion to diminish glucagon levels to basal levels to improve the dynamic range of the assay and thus effectively unmask the role of ligand-mediated glucagon secretion as described earlier. Islets were then transferred to a 24-well plate containing KRB buffer also supplemented with 25 mM glucose. Drug treatments were added in KRB (25 mM glucose) (1 hr, 37 °C, 5% CO2). After treatment, KRB was supplemented with a protease inhibitor cocktail (1 tablet/10 mL KRB; Roche Diagnostics, Mannheim, Germany) to prevent glucagon degradation. Supernatants were collected and placed on ice to further prevent glucagon degradation and precipitation. Undiluted supernatants and 1:2 dilutions were used for the glucagon detection assay, while 1:10 dilutions were used for insulin measurement; all dilutions were in KRB.

[6] = tested on: α-cell glucagon secretion in human islets; test: Islet secretion assay: glucagon secretion from human islets; type: cell-based; settings: for effect on glucagon secretion: increasing concentrations, relative to vehicle control; for increase in glucagon secretion compared to vehicle / effect on α-cell glucagon secretion: 1 µM; for effect on α-cell glucagon secretion: relative to vehicle
Method: as §2, with “For mouse pancreatic islet preparations, islets were obtained from 8 to 10-week-old wild-type BALB/c mice. Islets” for “Islets”
as §4

[7] = tested on: α2A-adrenergic receptor KO INS-1E cells; test: cells; settings: Rattus norvegicus, read-out: IC50, inhibition of GSIS
Text: (§5) We employed a CRISPR-Cas9-mediated approach to delete endogenous α2A-adrenergic receptor expression in INS-1E cells. Since INS-1E cells are rat-derived, we used the mRNA sequence encoding rat α2A-adrenergic receptor as a template to generate guide RNA (gRNA) to disrupt the promoter region of the Adra2a gene (gRNA sequence: 5′-[sequence]-3′, positions 57–76). We then generated a construct containing the Adra2a gRNA sequence along with cDNA sequences encoding Cas9 and GFP (pENTR-Adra2a-sgRNA-Cas9-GFP). 1–5 μg of the construct was subsequently transfected into low-passage INS-1E cells using Lipofectamine 3000 (ThermoFisher Scientific) according to manufacturer instructions. 24–48 h post-transfection, the transfected cells were identified and collected by fluorescence-activated cell sorting based on GFP fluorescence using a BD FACSAria II sorter (BD Biosciences, San Jose, CA) equipped with a GFP filter (530/30 nm).
(§6) Insulin secretion assays in INS-1E cells were conducted as described earlier[7],[42]. […] Insulin secretion was carried out 48 h after seeding the cells. On an experimental day, cells were first glucose-starved in KRB (0 mM glucose) for 1 h (37 °C, 5% CO2), followed by glucose stimulation with KRB supplemented with 20 mM glucose in the presence or absence of drugs for 90 min (37 °C, 5% CO2). The supernatants were collected and diluted 1:10 in KRB for the insulin detection assay.
(§7) The assay is based on homogeneous time-resolved fluorescence resonance energy transfer (HTRF) technology. Standard curve and assay samples (10 μL/well) were plated into a 384-well white, low-volume, round-bottom plate (Corning, Corning, NY). […] Secreted insulin was similarly detected and measured by an HTRF approach using the insulin high range detection kit (Cisbio Bioassays) as described previously[42]. The two anti-insulin antibodies were mixed in a 1:2 donor (cryptate)/acceptor (XL665) ratio in the insulin assay detection buffer (Cisbio Bioassays) and 15 µL of the insulin antibody mix was added per well. For both glucagon and insulin HTRF assays, the incubation time was 2 h at room temperature. […] The raw data were obtained in ng/mL insulin secreted and pg/mL glucagon secreted. Dose-response curves were fit via non-linear regression of Log[ligand] versus normalized % glucagon or insulin secretion. Investigators were blinded to the identity of samples during the initial analysis.

[8] = tested on: glucose-stimulated insulin secretion (GSIS) from β-cells in human islets; test: Islet secretion assay: insulin secretion from human islets; type: cell-based; settings: for IC50: read-out: IC50, reduction of insulin secretion (GSIS); for increase in GSIS compared to vehicle / effect on glucose-stimulated insulin secretion: 1 µM; for effect on glucose-stimulated insulin secretion: relative to vehicle
Method: as §2, §3

[9] = tested on: αTC1–6 cells; test: Catecholamine secretion assay with HPLC measurement; type: cell-based, mouse
Method: Cell-based catecholamine secretion assays were conducted as reported earlier[7]. Briefly, αTC1–6 cells were seeded into 24-well plates at an initial seeding density of 5 × 10^5 cells/well in complete DMEM medium. […] Some samples were also supplemented with 10 μM L-DOPA to boost cell catecholamine production in the presence or absence of a monoamine oxidase inhibitor cocktail (10 μM: deprenyl, pargyline, clorgyline). […] Lysates were collected and centrifuged at 17,000 rpm for 5 min at 4 °C to pellet cell debris and then added into HEGA buffer for High-Performance Liquid Chromatography (HPLC) analysis.
Assay samples were filtered (0.20 μm filter; ThermoFisher Scientific) and analyzed via HPLC with electrochemical detection as previously reported[7]. Briefly, samples were separated on a C18 reverse-phase column (Hypersil ODS C18 column, ThermoFisher Scientific) with MD-TM mobile phase (ThermoFisher Scientific).

[10] = target: T2, human α2A-adrenergic receptor (Homo sapiens, UniProt P08913); test: [3H]RX821002 radioligand binding, HEK-293 cells overexpressing α2A-adrenergic receptor; settings: membranes from HEK-293 cells overexpressing human α2A-adrenergic receptor
T2 construct: expressed in transfected cells; host or cells: HEK-293 (ATCC CRL-1573), transient transfection
T2 sequence (P08913 1-465): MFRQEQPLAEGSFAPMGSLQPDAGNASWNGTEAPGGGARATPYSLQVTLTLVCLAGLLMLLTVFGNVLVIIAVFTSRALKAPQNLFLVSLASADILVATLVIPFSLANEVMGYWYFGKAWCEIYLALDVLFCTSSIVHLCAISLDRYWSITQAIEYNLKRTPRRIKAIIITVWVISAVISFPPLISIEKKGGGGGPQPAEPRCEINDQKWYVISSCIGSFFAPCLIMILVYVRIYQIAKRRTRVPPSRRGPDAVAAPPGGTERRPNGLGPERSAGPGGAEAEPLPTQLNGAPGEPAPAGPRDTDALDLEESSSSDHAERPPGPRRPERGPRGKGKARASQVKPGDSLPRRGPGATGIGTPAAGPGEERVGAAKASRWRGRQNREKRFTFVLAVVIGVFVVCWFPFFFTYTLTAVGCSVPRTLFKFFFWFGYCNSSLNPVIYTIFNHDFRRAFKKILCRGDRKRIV
Method: as §1

[11] = tested on: membranes from α2A-adrenergic receptor KO INS-1E cells; test: [3H]RX821002 saturation binding, α2A-adrenergic receptor KO INS-1E cell membranes; parameters: species or system rat
Method: as §1

[12] = tested on: α2A-adrenergic receptor KO INS-1E cells; settings: α2A-adrenergic receptor KO INS-1E cells compared to parental
Text: as §5, §6, §7

[13] = 10 μM L-DOPA supplementation, compared to untreated cells
[14] = parental INS-1E cells, 20 mM glucose, 90 min

Work on `NCCc1ccc(O)c(O)c1` [DA, Dopamine] yielded an IC50 ([1]; INS-1E) of 1500 ± 2 nM, a Ki [2] of 164 ± 1.2 nM and an IC50 ([3]; Mus musculus, read-out: IC50, reduction of insulin secretion (GSIS), mouse islets) of 1290 ± 2 nM. The IC50 ([3]; read-out: IC50, reduction of insulin secretion (GSIS), mouse islets) was 1300 ± 2 nM, the EC50 [4] was 2100 ± 2 nM and the EC50 ([5]; Mus musculus, 1 h) was 14.9 ± 3.8 nM. For the same compound, the “effect on glucagon secretion” value [6] was “biphasic glucagon secretory response”, the IC50 [7] was 474 ± 2.5 nM and the IC50 ([8]; Homo sapiens) was 26.2 ± 2.9 nM.

`N[C@@H](Cc1ccc(O)c(O)c1)C(=O)O` [L-DOPA, L-3,4-dihydroxyphenylalanine] was tested, and the “fold increase in NE” value [9, 13] was 3 fold, the “fold increase in α-cell DA secretion” value [9, 13] was 60 fold and the “DA levels, fold more compared to NE” value ([9]; pre-incubation with 10 μM L-DOPA) was 27 fold.

Compound `NC[C@H](O)c1ccc(O)c(O)c1` [NE, norepinephrine] has an IC50 [1, 14] of 39.8 ± 1.5 nM, an IC50 ([3]; Mus musculus, mouse islets, read-out: IC50, reduction of insulin secretion (GSIS)) of 178 ± 2.4 nM and an IC50 ([3]; mouse islets, read-out: IC50, reduction of insulin secretion (GSIS)) of 179 ± 2.4 nM. The EC50 ([5]; Mus musculus, 1 h, mouse islets, 25 mM glucose, 1 hr) was 142 ± 2.3 nM, the EC50 ([5]; mouse islets, 25 mM glucose, 1 hr) was 142 ± 2.3 nM and the “effect on glucagon secretion” value [6] was “significantly enhance glucagon secretion; also recorded: significantly increased α-cell glucagon secretion”. The IC50 [7] was 1400 ± 2 nM, the IC50 ([8]; Homo sapiens, human islets) was 787.2 ± 1.3 nM and the IC50 ([8]; human islets) was 787 ± 1.3 nM.

With `COC1(C2=NCCN2)COc2ccccc2O1` (centres unmarked) [[^3H]RX821002] the “Bmax, saturation binding” value [2] was 110 ± 3.3 fmol/mg protein, the “Bmax, saturation binding” value ([2]; listed as [3H]RX821002) was 110±0.02 fmol/mg protein and the Kd ([2]; listed as [3H]RX821002) was 0.098 ± 0.02 nM. The Kd [2] was 0.1 ± 0.02 nM, the “Bmax, saturation binding” value [10] was 5691 ± 103 fmol/mg protein and the “Bmax, saturation binding” value ([10]; listed as [3H]RX821002) was 5691±103 fmol/mg protein. The Kd ([10]; read-out: KD, saturation binding) was 0.67 ± 0.05 nM and the “Bmax, saturation binding” value [11] was 29.1 ± 4.3 fmol/mg protein.

With `Clc1cccc(Cl)c1N=C1NCCN1` [clonidine] the IC50 [1, 14] was 12.7 ± 1.3 nM and the “GSIS inhibition in KO cells” value [12] was “attenuated; also recorded: virtually eliminated”.

With `CN1CCN(C2=Nc3cc(Cl)ccc3Nc3ccccc32)CC1` [clozapine] the “increase in glucagon secretion compared to vehicle” value (“increase in glucagon secretion” below) [6] was 200.2 ± 21.7%, the “effect on α-cell glucagon secretion” value [6] was “significantly raised α-cell glucagon secretion” and the “increase in GSIS compared to vehicle” value ([8]; human islets) was 19.8 ± 4.0%. The “effect on glucose-stimulated insulin secretion” value ([8]; human islets) was “raised glucose-stimulated insulin secretion”.

In the case of `O=C(CCCN1CCC(O)(c2ccc(Cl)cc2)CC1)c1ccc(F)cc1` [haloperidol], the “increase in glucagon secretion” value [6] is reported as 67.1 ± 13.6%, the “effect on α-cell glucagon secretion” value [6] is reported as “significantly raised α-cell glucagon secretion” and the “increase in GSIS compared to vehicle” value ([8]; human islets) is reported as 24.1 ± 4.6%. The “effect on glucose-stimulated insulin secretion” value ([8]; human islets) was “raised glucose-stimulated insulin secretion”.

`Cc1cc2c(s1)Nc1ccccc1N=C2N1CCN(C)CC1` [olanzapine] was tested, and the “increase in glucagon secretion” value [6] was 105.7 ± 23.4%, the “effect on α-cell glucagon secretion” value [6] was “significantly raised α-cell glucagon secretion” and the “increase in GSIS compared to vehicle” value ([8]; human islets) was 43.6 ± 3.1%. For the same compound, the “effect on glucose-stimulated insulin secretion” value ([8]; human islets) was “raised glucose-stimulated insulin secretion”.

With `CC(C)NC[C@H](O)COc1cccc2ccccc12` [propranolol, S-(−)-propranolol] the “effect of propranolol on DA-induced glucagon secretion” value ([5]; mouse islets, propranolol 100 nM pre-treatment prior to DA) was “attenuates DA’s enhancement of glucagon secretion; also recorded: eliminated DA-induced increases in α-cell glucagon secretion”.
